Results published in patent US20040009194A1, “Methods, and compositions for a therapeutic antigen presenting cell vaccine for treatment of immunodeficiency virus” (priority 2002, published 2004).

Tests used:
autologous PBL = assay: Proliferation of patient T cells stimulated with inactivated-virus-pulsed autologous DC ([methyl-3H]thymidine incorporation); assay type: cell-based, human; conditions: indinavir 10 nM (nonantiviral concentration); P<0.001
From the text: To mimic the antigen capture by DC in peripheral tissues, immature DC (i.e., competent in antigen capture) generated by culturing patient blood monocytes with GM-CSF and IL-4 for 5 days were pulsed with autologous viral isolates inactivated by 2,2′ dithiodipyridine or aldrithiol-2 (AT-2), which preserves the intact native conformation and fusogenic activity of HIV Env protein. As will be appreciated by those skilled in the art, there are a number of mechanisms suitable to inactivate a virus, and any of these methods can be used so long as the method preserves the intact native conformation and fusogenic activity of HIV Env protein. To model the presentation of antigens in lymphoid tissue, virus-pulsed DC were matured in the presence of TNF-α and IFN-α for an additional 3 days to maximize their T-cell-stimulatory activity. Matured virus-pulsed DC was then used to stimulate autologous PBL at a stimulator/responder ratio of 1:3 in the absence or presence of PI at a nonantiviral concentration (10 nM indinavir). By day 7 of coculture, PBL were restimulated with the same virus-pulsed DC for an additional 7 days. At day 14, proliferation was measured by incubating PBL with virus-pulsed DC at stimulator/responder ratios of 1:3 to 1:100. […] HIV-1 gag-specific CTL activity following stimulation with virus-pulsed autologous DC.

[1] = tested on: autologous B-LCL infected by recombinant vaccinia virus containing a gag gene of HIV-1; assay type: cell-based, human

CC(C)(C)NC(=O)[C@@H]1CN(Cc2cccnc2)CCN1C[C@@H](O)C[C@@H](Cc1ccccc1)C(=O)N[C@H]1c2ccccc2C[C@H]1O [indinavir]
effect of PI on DC-mediated T-cell proliferation (autologous PBL): significantly enhanced
effect of indinavir on gag-specific CTL activity [1]: significantly enhanced
